As usually defined, the IC50 is the concentration that inhibits the measured activity by half.

Experimental findings from US9149475B2, “Protein kinase C inhibitors and uses thereof” (Rigel Pharmaceuticals, Inc., priority 2009, dated 2015) are described below.

Structures can show the parent of a compound that is named as a salt.

In one assay the test system is Human primary T cells. As to the kind of experiment: IL-2 ELISA, human primary T cell, anti-CD3+CD28+ (whole cell assay). The following applies: Homo sapiens, T-cell, 24 h, human primary T cells stimulated with anti-CD3 + anti-CD28, 24 hours. In kind it is cell-based. In short, it runs like this:
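PBMC-derived T cells, pre-expanded on αCD3/αCD28 with IL-2 and then washed free of IL-2, were preincubated with compound for 1 hr at 37° C (100,000 cells/well). They were then stimulated on 1 μg/ml αCD3 plus 5 μg/ml αCD28 for 24 h, and supernatant IL-2 was measured by ELISA. The counter-assay used 0.5 ng/ml PMA plus 0.1 μM ionomycin instead.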
In general terms: ELISA stands for enzyme-linked immunosorbent assay.
Take `CC(C)N1CCC(Oc2ccc(Nc3ncc(F)c(NC4CC(C)(C)NC(C)(C)C4)n3)cc2OC(F)F)C(F)C1` (centres unmarked) [III-104, N2-(3-(difluoromethoxy)-4-(3-fluoro-1-isopropylpiperidin-4-yloxy)phenyl)-5-fluoro-N4-(2,2,6,6-tetramethylpiperidin-4-yl)pyrimidine-2,4-diamine trifluoroacetate salt]: the IC50 fell in the range of 500 to 1000 nM.

For the compound `CC(C)Oc1ncc(Nc2ncc(C#N)c(NC3CC(C)(C)NC(C)(C)C3)n2)cc1-c1nnnn1C1CC1` [Compound I-140, 2-(5-(1-cyclopropyl-1H-tetrazol-5-yl)-6-isopropoxypyridin-3-ylamino)-4-(2,2,6,6-tetramethylpiperidin-4-ylamino)pyrimidine-5-carbonitrile], the concentration for half-maximal inhibition (IC50) lay in the range of 250 to 500 nM.

On to `CC1(C)CC(Nc2nc(Nc3ccc(OCCCN4CCOCC4)c(OC(F)F)c3)ncc2F)CC(C)(C)N1CC(F)(F)F` [Compound I-66, N2-(4-(3-morpholinopropoxy)-3-(difluoromethoxy)phenyl)-5-fluoro-N4-(1-(2,2,2-trifluoroethyl)-2,2,6,6-tetramethylpiperidin-4-yl)pyrimidine-2,4-diamine], for which the IC50 was > 1000 nM.

`CC(C)Oc1ncc(Nc2ncc(F)c(NC3CC(C)(C)N(C)C(C)(C)C3)n2)cc1-c1nnnn1C1CC1` [Compound I-137, N2-(5-(1-cyclopropyl-1H-tetrazol-5-yl)-6-isopropoxypyridin-3-yl)-5-fluoro-N4-(1,2,2,6,6-pentamethylpiperidin-4-yl)pyrimidine-2,4-diamine]: the IC50 is < 250 nM.

Take `CC1(C)CC(Nc2nc(Nc3cc(OC(F)F)cc(C(F)(F)F)c3)ncc2F)CC(C)(C)N1` [Compound I-106, N2-(3-(difluoromethoxy)-5-(trifluoromethyl)phenyl)-5-fluoro-N4-(2,2,6,6-tetramethylpiperidin-4-yl)pyrimidine-2,4-diamine]: the IC50 was 500 to 1000 nM.

Take `CCOc1ccc(Nc2ncc(F)c(NC3CC(C)(C)N(C)C(C)(C)C3)n2)cc1-n1c(C)ccc1C` [Compound I-13, N2-(4-ethoxy-3-(2,5-dimethyl-1H-pyrrol-1-yl)phenyl)-5-fluoro-N4-(1,2,2,6,6-pentamethylpiperidin-4-yl)pyrimidine-2,4-diamine]: the half-maximal inhibitory concentration (IC50) was > 1000 nM.

As to `CN1C(C)(C)CC(Nc2nc(Nc3cc(-c4nnnn4C)cc(C(F)(F)F)c3)ncc2F)CC1(C)C` [III-141, 5-fluoro-N2-(3-(1-methyl-1H-tetrazol-5-yl)-5-(trifluoromethyl)phenyl)-N4-(1,2,2,6,6-pentamethylpiperidin-4-yl)pyrimidine-2,4-diamine], the half-inhibitory concentration (IC50) is < 250 nM.

Take `CCNC(=O)N1CCC(Oc2ccc(Nc3ncc(F)c(NC4CC(C)(C)NC(C)(C)C4)n3)cc2OC(F)F)CC1` [III-86, 4-(2-(difluoromethoxy)-4-(5-fluoro-4-(2,2,6,6-tetramethylpiperidin-4-ylamino)pyrimidin-2-ylamino)phenoxy)-N-ethylpiperidine-1-carboxamide]: the half-maximal inhibitory concentration (IC50) is > 1000 nM.

On to `CN1C(C)(C)CC(Nc2nc(Nc3ccc(Oc4ccncc4)c(OC(F)F)c3)ncc2C#N)CC1(C)C` [Compound I-53, 4-(1,2,2,6,6-pentamethylpiperidin-4-ylamino)-2-(3-(difluoromethoxy)-4-(pyridin-4-yloxy)phenylamino)pyrimidine-5-carbonitrile], for which the IC50 was > 1000 nM.

Consider `CC1(C)CC(Nc2nc(Nc3ccc(OCCn4ccnn4)c(OC(F)F)c3)ncc2F)CC(C)(C)N1` [Compound I-24, N2-(4-(2-(1H-1,2,3-triazol-1-yl)ethoxy)-3-(difluoromethoxy)phenyl)-5-fluoro-N4-(2,2,6,6-tetramethylpiperidin-4-yl)pyrimidine-2,4-diamine], for which the IC50 was in the range of 500 to 1000 nM.

In the case of `CC1(C)CC(Nc2nc(Nc3cc(OCCn4cncn4)cc(C(F)(F)F)c3)ncc2F)CC(C)(C)N1` [Compound I-28, N2-(3-(2-(1H-1,2,4-triazol-1-yl)ethoxy)-5-(trifluoromethyl)phenyl)-5-fluoro-N4-(2,2,6,6-tetramethylpiperidin-4-yl)pyrimidine-2,4-diamine], the 50% inhibitory concentration (IC50) was 500 to 1000 nM.

With `CC(C)N1CC[C@H](Oc2ccc(Nc3ncc(F)c(NC4CC(C)(C)N(C)C(C)(C)C4)n3)cc2OC(F)F)C1` [Compound I-149, N2-(4-((S)-1-isopropylpyrrolidin-3-yloxy)-3-(difluoromethoxy)phenyl)-5-fluoro-N4-(1,2,2,6,6-pentamethylpiperidin-4-yl)pyrimidine-2,4-diamine], the IC50 was < 250 nM.

Turning to `[2H]C([2H])([2H])N1C(C)(C)CC(Nc2nc(Nc3ccc(OC4CCN(C(C)C)CC4F)c(OC(F)F)c3)ncc2F)CC1(C)C` (centres unmarked) [III-112, N2-(3-(difluoromethoxy)-4-(3-fluoro-1-isopropylpiperidin-4-yloxy)phenyl)-5-fluoro-N4-(1-trideuteromethyl-2,2,6,6-tetramethylpiperidin-4-yl)pyrimidine-2,4-diamine], the 50% inhibitory concentration (IC50) was 250 to 500 nM.

As to `CC1(C)CC(Nc2nc(Nc3ccc(C4CC4)c(-n4cnnn4)c3)ncc2F)CC(C)(C)N1` [III-118, N^2-(4-cyclopropyl-3-(1H-tetrazol-1-yl)phenyl)-5-fluoro-N^4(2,2,6,6-tetramethylpiperidin-4-yl)pyrimidine-2,4-diamine], the IC50 was < 250 nM.

Regarding `CN1C(C)(C)CC(Nc2nc(Nc3cc(OCCn4cncn4)cc(C(F)(F)F)c3)ncc2F)CC1(C)C` [Compound I-29, N2-(3-(2-(1H-1,2,4-triazol-1-yl)ethoxy)-5-(trifluoromethyl)phenyl)-5-fluoro-N4-(1,2,2,6,6-pentamethylpiperidin-4-yl)pyrimidine-2,4-diamine], the IC50 lay within 500 to 1000 nM.

`CC1CC(Nc2nc(Nc3cccc(-n4cnnn4)c3)ncc2F)CC(C)N1C1CC1` (centres unmarked) [III-5, N^2-(3-(1H-tetrazol-1-yl)phenyl)-N4-(1-cyclopropyl-2,6-dimethylpiperidin-4-yl)-5-fluoropyrimidine-2,4-diamine]: the IC50 was 250 to 500 nM.

In the case of `CC1(C)CC(Nc2nc(Nc3cnc(OCCN4CCCC4)c(OC(F)F)c3)ncc2F)CC(C)(C)N1` [Compound I-143, N2-(5-(difluoromethoxy)-6-(2-(pyrrolidin-1-yl)ethoxy)pyridin-3-yl)-5-fluoro-N4-(2,2,6,6-tetramethylpiperidin-4-yl)pyrimidine-2,4-diamine], the 50% inhibitory concentration (IC50) is > 1000 nM.

In the case of `CC(C)Oc1c(F)cc(Nc2ncc(F)c(NC3CC(C)(C)NC(C)(C)C3)n2)cc1-c1nnnn1C` [III-142, 5-fluoro-N2-(3-fluoro-4-isopropoxy-5-(1-methyl-1H-tetrazol-5-yl)phenyl)-N4-(2,2,6,6-tetramethylpiperidin-4-yl)pyrimidine-2,4-diamine], the IC50 is 250 to 500 nM.

For `CCOc1ccc(Nc2ncc(F)c(NC3CC(C)(C)NC(C)(C)C3)n2)cc1-n1c(C)ccc1C` [Compound I-14, N2-(4-ethoxy-3-(2,5-dimethyl-1H-pyrrol-1-yl)phenyl)-5-fluoro-N4-(2,2,6,6-tetramethylpiperidin-4-yl)pyrimidine-2,4-diamine], the IC50 fell in the range of 500 to 1000 nM.

The assay is the same for the next values; noted with them: human primary T cells stimulated with anti-CD3 + anti-CD28, 24 hours.
As to `CC1(C)CC(Nc2nc(Nc3ccc(F)c(-n4cnnn4)c3)ncc2C(N)=O)CC(C)(C)N1` [Compound I-125, 5-aminocarbonyl-N2-[4-fluoro-3-(1H-tetrazol-1-yl)]phenyl-N4-(2,2,6,6-tetramethylpiperidin-4-yl)-2,4-pyrimidinediamine], the concentration for half-maximal inhibition (IC50) was in the range of 250 to 500 nM.
